What follows are compounds tested against T1, PPARα (Homo sapiens, UniProt Q07869) (assay: PPARα activation of single ceramide derivatives, PPRE-luciferase reporter in transfected HaCaT cells (Test Example 1)). Conditions: 10 ppm, 24 hours, HaCaT transfected with PPRE reporter and PPARα plasmids; DMSO control = 100.
T1 construct: expressed in transfected cells; host or cells: HaCaT (human keratinocyte cell line), transiently transfected
T1 sequence (Q07869 1-468): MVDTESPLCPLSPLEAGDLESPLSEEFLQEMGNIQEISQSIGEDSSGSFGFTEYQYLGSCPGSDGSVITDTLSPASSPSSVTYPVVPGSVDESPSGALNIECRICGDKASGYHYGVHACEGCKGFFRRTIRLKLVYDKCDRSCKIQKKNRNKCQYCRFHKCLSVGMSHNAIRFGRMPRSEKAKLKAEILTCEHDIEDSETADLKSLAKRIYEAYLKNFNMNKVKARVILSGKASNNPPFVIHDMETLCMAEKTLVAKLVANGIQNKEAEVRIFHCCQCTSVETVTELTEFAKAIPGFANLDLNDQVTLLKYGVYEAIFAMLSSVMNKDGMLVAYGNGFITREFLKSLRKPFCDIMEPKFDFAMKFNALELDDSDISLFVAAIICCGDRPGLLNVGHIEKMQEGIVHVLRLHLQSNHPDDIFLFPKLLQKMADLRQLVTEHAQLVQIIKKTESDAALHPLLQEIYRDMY
Type: cell-based
Description: HaCaT, which is a human keratinocyte cell line, was subcultured in DMEM medium containing 10% fetal bovine serum, which is a phenol red-free medium, in order to eliminate the effect caused by the phenol red's estrogen. The following plasmids were used: a plasmid having PPARα, PPARβ/δ and PPARγ genes downstream of a universal promoter which is expressed in general culture conditions; a plasmid having a PPARs response element (“PPRE”) as a promoter, which is activated by binding with ligand-bound PPARs, and a firefly luciferase gene serving as a reporter downstream of the promoter; and a reference plasmid having a β-galactosidase gene bound to a universal promoter.
HaCaT cells were seeded into a 24-well plate at a density of 5×10^4 cells/well, cultured for 24 hours, and then transiently transfected with the plasmid genes. After 24 hours of culture, the cells were washed with phosphate buffered saline (PBS), and then treated with the compounds prepared in Reference Examples 2-1 to 2-4, and Reference Examples 3-11 to 3-15 at a concentration of 10 ppm. As a positive control group, the cells were treated with a previously-known PPARs ligand (PPARα ligand Wy-14643) at a concentration of 10 μM. As a negative control group, a group treated with DMSO used to dissolve the samples was used. After 24 hours of culture, the cells were washed with PBS, harvested, and measured for luciferase activity.
Results obtained by transfecting the HaCaT cell line with the PPRE promoter reporter plasmid and the PPARα expression plasmid, followed by treating the transfected cells with drugs, and measuring the luciferase activity of the cells

| Structure (SMILES) | Relative to Control Group (%) (luciferase activity) |
| --- | --- |
| CCCCCCCCCCCCCCCC(=O)N(CCO)CC(O)CN(CCO)C(=O)CCCCCCCCCCCCCCC [Reference Example 2-1, 1,3-bis(N-(2-hydroxyethyl)-palmitoylamino)-2-hydroxypropane] | 263 |
| CCCCCCCCCCCC(=O)N(CCO)CC(O)CN(CCO)C(=O)CCCCCCCCCCC [Reference Example 2-2, 1,3-Bis(N-(2-Hydroxyethyl)-Lauroylamino)-2-Hydroxypropane] | 270 |
| CCCCCCCC/C=C\CCCCCCCC(=O)N(CCO)CC(O)CN(CCO)C(=O)CCCCCCC/C=C\CCCCCCCC [Reference Example 2-3, 1,3-bis(N-(2-hydroxyethyl)-oleoylamino)-2-hydroxypropane] | 255 |
| CCCCCCCCCCCCCCCC(=O)N(CCO)CC(O)CNCCO (stereo not shown) [Reference Example 2-4, N,N′-bis(2-hydroxyethyl)-N-palmitoyl-N′-1,3-diamino-2-hydroxypropane] | 260 |
| CCCCCCCCCCCCCCCCN(CC(C)OP(=O)([O-])[O-])C(=O)CCCCCCCCCCCCCCC.[Na+].[Na+] (stereo not shown) [Reference Example 3-11, (N-hexadecyl-N-palmitoyl)-1-aminopropane-2-sodium phosphate] | 272 |
| CCCCCCCCCCCCCCCCN(CC(C)(C)OP(=O)([O-])[O-])C(=O)CCCCCCCCCCCCCCC.[Na+].[Na+] [Reference Example 3-12, (N-Hexadecyl-N-Palmitoyl)-1-Amino-2-Methylpropane-2-Sodium Phosphate] | 270 |
| CCCCCCCCCCCCCCCCN(CCOCCOP(=O)([O-])O)C(=O)CCCCCCCCCCCCCCC.[Na+] [Reference Example 3-13, (N-Hexadecyl-N-Palmitoyl)-1-Amino-2-Ethoxyethane-2-Sodium Phosphate] | 259 |
| CCCCCCCC/C=C\CCCCCCCCN(CC(C)OS(=O)(=O)[O-])C(=O)CCCCCCCCCCCCCCC.[Na+] (stereo not shown) [Reference Example 3-14, (N-oleyl-N-palmitoyl)-1-aminopropane-2-sodium sulfate] | 278 |
| CCCCCCCC/C=C\CCCCCCCCN(CC(C)(C)OS(=O)(=O)[O-])C(=O)CCCCCCCCCCCCCCC.[Na+] [Reference Example 3-15, (N-Oleyl-N-Palmitoyl)-1-Amino-2-Methylpropane-2-Sodium Sulfate] | 269 |

Same assay, conditions: positive control, 10 μM, 24 hours, HaCaT; DMSO control = 100

| Structure (SMILES) | Relative to Control Group (%) (luciferase activity) |
| --- | --- |
| Cc1cccc(Nc2cc(Cl)nc(SCC(=O)O)n2)c1C [Wy-14643, reference compound] | 291 |

From US11166899B2, “Composition for external application containing a ceramide, a derivative thereof and an extract of Hibisci cortex” (AMOREPACIFIC CORPORATION, priority 2017, dated 2021)
